{
  "source": "patent US20230285498A1",
  "about": "“TREATMENTS FOR CANCERS HAVING KRAS MUTATIONS” (City of Hope, priority 2020, published 2023)",
  "key": {"[1]": {"test_system": "ITGB4-overexpressing H23 cells", "experiment": "Cell proliferation, ITGB4-overexpressing cells", "assay_type": "cell-based", "settings": "Homo sapiens, NCI-H23"}, "SW1573 cells": {"test_system": "SW1573 cells", "experiment": "Zebrafish larvae SW1573 xenotransplant", "assay_type": "in vivo", "experimental": "The inventors microinjected SW1573 cells into the perivitelline space of 48 hour post-fertilization (hpf) zebrafish larvae."}, "SW1573 NSCLC cells": {"test_system": "SW1573 NSCLC cells", "experiment": "Mouse SW1573 xenograft", "assay_type": "in vivo, Athymic nude nu/nu mice", "settings": "sotorasib 10 mg/kg, adagrasib 10 mg/kg, carfilzomib 2 mg/kg; oral gavage twice a week; day 56", "experimental": "Mouse xenograft studies. Athymic nude nu/nu mice were obtained from Charles River, Wilmington, Mass., and were acclimated for a week before beginning the experiment. All animal experiments were carried out in accordance with a protocol approved by the Institutional Animal Care and Use Committee (IACUC #16004). […] All 40 animals were injected with 1×10^6 SW1573 cells suspensions in 100 μl of PBS, subcutaneously into one flank of each mouse. At the same time, animals were randomized into treatment groups. Treatment was started 12 days after the SW1573 NSCLC cells implantation to see palpable tumor growth. Treatments were given to mice via oral gavage twice a week for 8 weeks. Animals were examined daily for signs of tumor growth. Tumors were measured in two dimensions using calipers and body weights were recorded. Photographs of animals were taken at day 1, day 7, day 14, day 21, day 28, day 35, day 42, day 49, and day 56 after treatment. Photographs of tumors were also taken at day 56 after treatment. At the end of the study, the mice were euthanized by CO2 asphyxiation followed by cervical dislocation. The tumor weights were compared between groups using an unpaired Student's t-test. A portion of the tumor was fixed in 10% buffered formaldehyde solution and paraffin-embedded for immuno-staining or was snap-frozen in liquid nitrogen for further molecular analysis such as western blotting."}, "H358": {"test_system": "H358", "experiment": "Cell proliferation assay, 2D (IncuCyte live cell imaging)", "assay_type": "cell-based", "settings": "Homo sapiens, NCI-H358", "experimental": "(§1) The cells grown in 2D cultures were treated with various concentrations of the drug, and the effect on cell proliferation was determined in real time using the live cell proliferation assay (IncuCyte, Essen Bioscience, Inc.) as described in the methods.\n(§2) Cell proliferation and apoptosis assay: Cell proliferation assays were performed using cell lines stably transfected with NucLight Red Lentivirus (Essen BioScience) to accurately visualize and count the nucleus of a single cell. Cells were seeded on a 96-well plate and allowed to adhere for 24 h. Test compounds were added at indicated concentrations. Caspase-3/7 Green Apoptosis Reagent (Essen BioScience) was also added as a green fluorescent indicator of caspase3/7-mediated apoptotic activity. To monitor cell proliferation and apoptosis over time, the plate was placed in the IncuCyte S3 Live Cell Imaging System (Essen BioScience) and images were acquired every 2 hours. Data analysis was generated by the IncuCyte software using a red fluorescence mask to accurately count each cell nucleus and a green fluorescence mask to measure apoptosis over time. 3D spheroid assay 3D spheroid experiments were performed using cell lines stably transfected with NucLight Red Lentivirus (Essen BioScience) to visualize red fluorescence as an indicator of cell viability. Cells were seeded on a 96-well ultra-low attachment plate and allowed to form spheroids overnight. Drug treatment was added as indicated along with Cytotox Green Reagent (Essen BioScience), used as a green fluorescence indicator of cell death due to loss of cell membrane integrity. To monitor cell proliferation and apoptosis over time, the plate was placed in the IncuCyte S3 Live Cell Imaging System (Essen BioScience) and images were acquired every 2 hours. Data analysis was generated by the IncuCyte software using a red fluorescence mask to accurately measure intensity and area of red fluorescence, indicating spheroid viability and a green fluorescence mask, indicating cell death. Cell cycle analysis."}, "H23": {"test_system": "H23", "experiment": "Cell proliferation assay, 2D (IncuCyte live cell imaging)", "assay_type": "cell-based", "experimental": "as §1, §2"}, "SW1573": {"test_system": "SW1573", "experiment": "Cell proliferation assay, 2D (IncuCyte live cell imaging)", "assay_type": "cell-based", "settings": "for IC50 / inhibition of cell growth at last time point: SW1573; for inhibition of cell growth at last time point: 96 hours", "experimental": "The cells were seeded at density of 10000 cells/well 12 hours prior to the experiment. Once the cells attached to the plate the media was removed and the drugs were added to the cells. […] Cell proliferation was observed using the IncuCyte Live Imaging System for 72 hrs.\nKnockdown of ITGB4 (Cat #SR302473C) at the mRNA level in the SW1573 cells was done using siRNAs purchased from OriGene Technologies (Rockville, Md., USA). JetPRIME transfection reagent (Polyplus Transfection, Illkirch, France) was used to transfect the siRNAs according to the manufacturer's protocol. Cells were seeded in 6-well plates (200,000 cells/well) and allowed to adhere overnight. Next day, 10 nM siRNA was transfected with 4 μl jetPRIME reagent in complete growth medium for each well. Next day cells were trypsinized, counted and re-plated on the 96 well plate for cell proliferation and drug assay. […] Cell growth medium was changed the next day and expression was detected 72 h post-transfection by immunoblotting.\nas §1, §2"}},
  "note": "Read-outs that look alike come from different tables or passages of the source.",
  "data": [
    {"smiles": "C=CC(=O)N1CCN(c2nc(=O)n(-c3c(C)ccnc3C(C)C)c3nc(-c4c(O)cccc4F)c(F)cc23)[C@@H](C)C1", "note": "[sotorasib]", "values": [
      {"measurement": "inhibition at 10 µM", "setting": "[1]", "value": 5, "unit": "%"},
      {"measurement": "most effective dose, drug alone (obliterates SW1573 cells)", "setting": "SW1573 cells", "value": 12, "unit": "µM"},
      {"measurement": "toxic dose, drug alone", "setting": "SW1573 cells", "value": 18, "unit": "µM"},
      {"measurement": "reduction in tumor area", "setting": "SW1573 NSCLC cells", "value": "about 52%"},
      {"measurement": "IC50", "setting": "H358", "value": 63, "unit": "nM"},
      {"measurement": "inhibition at 0.61 µM", "setting": "H358; H358, 0.61 μM", "value": "~60", "unit": "%"},
      {"measurement": "IC50", "setting": "H358; H358, 72 hours, Example 6, read-out: IC50, cell proliferation", "value": 130, "unit": "nM"},
      {"measurement": "IC50", "setting": "H358; H358, Example 1, FIG. 14C-14D, read-out: IC50, cell proliferation", "value": 800, "unit": "nM"},
      {"measurement": "cell count", "setting": "H23; H23, 1-3 μM, 24 h, start 9,000, control 15,000", "value": "12,000"},
      {"measurement": "IC50", "setting": "H23; Homo sapiens, NCI-H23, 72 h, H23, 72 hours, Example 6", "value": 3000, "unit": "nM"},
      {"measurement": "IC50", "setting": "H23; Homo sapiens, NCI-H23, H23, Example 1, FIG. 14C-14D", "value": 3200, "unit": "nM"},
      {"measurement": "inhibition at 0.3 µM", "setting": "H23; Homo sapiens, NCI-H23, H23, 0.3 μM", "value": "~20", "unit": "%"},
      {"measurement": "inhibition at 10 µM", "setting": "H23; Homo sapiens, NCI-H23, H23, 72 hours, read-out: inhibition of proliferation / cell growth", "value": "~80", "unit": "%"},
      {"measurement": "inhibition at 5 µM", "setting": "H23; Homo sapiens, NCI-H23, H23 parental cells, 5 μM, FIG. 4B, read-out: inhibition of proliferation", "value": 50, "unit": "%"},
      {"measurement": "inhibition at 10 µM", "setting": "H23; Homo sapiens, NCI-H23, H23 parental cells, FIG. 4B, read-out: inhibition of proliferation", "value": 70, "unit": "%"},
      {"measurement": "inhibition at 10 µM", "setting": "SW1573; Homo sapiens, SW1573, 72 h, read-out: inhibition of proliferation / cell growth", "value": "~50", "unit": "%"},
      {"measurement": "IC50", "setting": "SW1573; Homo sapiens, 72 hours, Example 6", "value": 9500, "unit": "nM"},
      {"measurement": "IC50", "setting": "SW1573; Homo sapiens, Example 1, FIG. 14C-14D", "value": 8000, "unit": "nM"},
      {"measurement": "inhibition of cell growth at last time point", "setting": "SW1573; ITGB4/β-catenin double knockdown plus sotorasib", "value": "about 70%"},
      {"measurement": "inhibition of cell growth at last time point", "setting": "SW1573; sotorasib at IC50 concentration only", "value": "about 40%"}
    ]}
  ]
}
